Test results taken from ChEMBL document CHEMBL1201862, “PubChem BioAssay data set” (2004).
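Compound exposure: 48 hours, 5 concentrations, 96-well plates. GI50 is the concentration that inhibits growth by half.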 Calls of active or inactive are those of the source. Rule as the data show it: active = GI50 up to about 1.1 µM and inactive = higher.

Columns and labels:
Experiment in all cases: DTP human tumour cell line panel, 48 h
HL-60 = test system: HL-60
M14 = test system: M14
KM12 = test system: KM12
CAKI-1 = test system: CAKI-1
SN12C = test system: SN12C
DMS-273 = test system: DMS-273
OVCAR-8 = test system: OVCAR-8
COLO 205 = test system: COLO 205
NCI-H460 = test system: NCI-H460
SNB-19 = test system: SNB-19
NCI-H522 = test system: NCI-H522
HOP-62 = test system: HOP-62
OVCAR-4 = test system: OVCAR-4
LOX IMVI = test system: LOX IMVI
DU-145 = test system: DU-145
MDA-MB-231 = test system: MDA-MB-231
PC-3 = test system: PC-3
Hs-578T = test system: Hs-578T
BT-549 = test system: BT-549

Row | SMILES | GI50 (HL-60) | GI50 (M14) | GI50 (KM12) | GI50 (CAKI-1) | GI50 (SN12C) | GI50 (DMS-273) | GI50 (OVCAR-8) | GI50 (COLO 205) | GI50 (NCI-H460) | GI50 (SNB-19) | GI50 (NCI-H522) | GI50 (HOP-62) | GI50 (OVCAR-4) | GI50 (LOX IMVI) | GI50 (DU-145) | GI50 (MDA-MB-231) | GI50 (PC-3) | GI50 (Hs-578T) | GI50 (BT-549)
1 | CCC1C(C(=O)Nc2ccccc2C)=C(C)NC(C)=C1c1ccccc1C (configuration not stated) | 11.6 µM (inactive) | > 100 µM (inactive) | > 100 µM (inactive) | > 100 µM (inactive) | > 100 µM (inactive) | > 49 µM (inactive) | > 100 µM (inactive) | > 77.1 µM (inactive) | > 44.1 µM (inactive) | > 100 µM (inactive) | > 100 µM (inactive) | > 100 µM (inactive) | > 100 µM (inactive) | > 57.8 µM (inactive) |  |  |  |  | 
2 | COc1ccc2c[n+](C)c3c4cc(OC)c(OC)cc4ccc3c2c1 | 8.07 µM (inactive) | 15.7 µM (inactive) | 1.43 µM (inactive) | 42.3 µM (inactive) | 2.02 µM (inactive) | 2.28 µM (inactive) | 2.14 µM (inactive) | 0.776 µM (active) | 3.91 µM (inactive) | 2.52 µM (inactive) | 2.03 µM (inactive) | 8.02 µM (inactive) | 8.09 µM (inactive) | 4.72 µM (inactive) | 10.3 µM (inactive) | 0.944 µM (active) | 0.849 µM (active) | 2.6 µM (inactive) | 2.85 µM (inactive)
3 | COC(=O)C1C(C(=O)OC)C2(OC)c3ccccc3-c3ccccc3C12 (configuration not stated) | 1.97 µM (inactive) | 34.2 µM (inactive) | 35.6 µM (inactive) | 40.1 µM (inactive) | 32 µM (inactive) | 16.7 µM (inactive) | 49.7 µM (inactive) | 16.1 µM (inactive) | 34.4 µM (inactive) | 60 µM (inactive) | 20.3 µM (inactive) | 71.6 µM (inactive) | 48.2 µM (inactive) | 25.6 µM (inactive) |  |  |  |  | 
